Results as given in US9204640B2, “2-acyloxy-pyrrolin-4-ones” (BAYER INTELLECTUAL PROPERTY GMBH, priority 2011, dated 2015).

What was measured:
Assay type in all cases: in vivo
Myzus persicae [1] = test: Myzus persicae test (MYZUPE Tau), leaf dipping; settings: Myzus persicae, foliar, 144 h, 6dat
Protocol: Myzus Persicae Test (MYZUPE Tau) To produce a suitable preparation of active compound, 1 part by weight of active compound is mixed with the stated amount of solvent and emulsifier, and the concentrate is diluted with emulsifier-containing water to the desired concentration. Cabbage leaves (Brassica oleracea) which are heavily infested by the green peach aphid (Myzus persicae) are treated by dipping into the active compound preparation of the desired concentration. After the desired period of time, the kill in % is determined. 100% means that all of the aphids have been killed; 0% means that none of the aphids have been killed.

Myzus persicae [2] = test: Myzus persicae test; hydroponic treatment (MYZUPE Sys); settings: Myzus persicae, 144 h, 6dat
Protocol: Myzus Persicae Test; Hydroponic Treatment (MYZUPE Sys)
To produce a suitable preparation of active compound, 1 part by weight of active compound is mixed with the stated amounts of solvent and emulsifier, and the concentrate is diluted with water to the desired concentration.
The active compound preparation is mixed with water. The stated concentration refers to the amount of active compound per volume unit of water (mg/l=ppm). The treated water is filled into vessels containing a pea plant (Pisum sativum), and the plant is the infested with the green peach aphid (Myzus persicae).
After the desired period of time, the kill in % is determined 100% means that all of the aphids have been killed; 0% means that none of the aphids have been killed.

Setaria viridis = test: Herbicidal pre-emergence action, SETVI; settings: Setaria viridis, pre-emergence, 20 g/ha
Excerpt: 1. Herbicidal Pre-Emergence Action
• Seeds of monocotyledonous and dicotyledonous weed plants and crop plants are placed in wood-fiber pots in sandy loam and covered with soil. The test compounds, formulated in the form of wettable powders (WP), are then, as an aqueous suspension with a water application rate of 600 l/ha (converted), with 0.2% of wetting agent added, applied at various dosages to the surface of the covering soil. • After the treatment, the pots are placed in a greenhouse and kept under good growth conditions for the test plants. The visual assessment of the damage to the test plants is carried out after a trial period of about 3 weeks by comparison with untreated controls (herbicidal activity in percent: 100% activity=the plants have died, 0% activity=like control plants). • In addition to the compounds mentioned above, the following compounds show an activity of 90-100% against Alopecurus myosuroides, Digitaria sanguinalis, Echinocloa crus-galli, Lolium multiflorum, Setaria viridis and Sorghum halapense when applied by the pre-emergence method at 320 g/ha of a.i.: I-a-2, I-a-10, I-a-11, I-a-12.
1. Herbicidal Pre-Emergence Action (Pre)
(§1) • Seeds of monocotyledonous and dicotyledonous weed plants and crop plants are placed in wood-fiber pots in sandy loam and covered with soil. The test compounds, formulated in the form of wettable powders (WP) or emulsion concentrates (EC), are then, as an aqueous suspension with a water application rate of 600-800 l/ha (converted), with 0.1-0.2% of wetting agent added, applied at various dosages to the surface of the covering soil. • After the treatment, the pots are placed in a greenhouse and kept under good growth conditions for the test plants. […] Herbicidal Post-Emergence Action (Post) • Seeds of monocotyledonous and dicotyledonous weed and crop plants are placed in sandy loam in wood-fiber pots, covered with soil and cultivated in a greenhouse under good growth conditions. 2-3 weeks (stages 10-13 according to the BBCH scale) after sowing, the test plants are treated at a height of 5-10 cm. The test compounds, formulated as wettable powders (WP) or emulsion concentrates (EC), are then, with a water application rate of 600-800 l/ha (converted), with 0.1-0.2% of wetting agent added, sprayed at various dosages onto the green parts of the plants.
(§2) AVEFA: Avena fatua LOLMU: Lolium multiflorum SETVI: Setaria viridis CHEAL: Chenopodium album VIOTR: Viola tricolor VERPE: Veronica persica ORYSA: Oryza sativa TRZAS: Triticum aestivum ZEAMX: Zea mays ALOMY: Alopecurus myosuroides DIGSA: Digitaria sanguinalis ECHCG: Echinocloa crus-galli SORHA: Sorghum halepense AVESA: Avena sativa AMARE: Amaranthus retroflexus SINAL: Sinapis alba STEME: Stellaria media

Alopecurus myosuroides = test: Herbicidal post-emergence action, ALOMY; settings: Alopecurus myosuroides, post-emergence, 20 g/ha
Protocol: (§3) 2. Herbicidal Post-Emergence Action
(§4) • Seeds of monocotyledonous and dicotyledonous weed and crop plants are placed in sandy loam in wood-fiber pots, covered with soil and cultivated in a greenhouse under good growth conditions. 2 to 3 weeks after sowing, the test plants are treated at the one-leaf stage. The test compounds, formulated as wettable powders (WP), are then, with a water application rate of 600 l/ha (converted), with 0.2% of wetting agent added, sprayed at various dosages onto the green parts of the plants. After the test plants have been kept in the greenhouse under optimum growth conditions for about 3 weeks, the activity of the preparations is rated visually in comparison to untreated controls (herbicidal activity in percent: 100% activity=the plants have died, 0% activity=like control plants). • In addition to the compounds mentioned above, the following compounds show an activity of 90-100% against Alopecurus myosuroides, Avena fatua, Digitaria sanguinalis, Echinocloa crus-galli, Lolium multiflorum, Setaria viridis and Sorghum halapense when applied by the post-emergence method at 320 g/ha: I-a-2, I-a-4, I-a-5, I-a-7, I-a-9, I-a-10, I-a-11, I-a-12, I-a-13, I-a-15. • In addition to the compounds mentioned above, the following compounds show an activity of 90-100% against Alopecurus myosuroides, Avena fatua, Echinocloa crus-galli, Lolium multiflorum and Setaria viridis when applied by the post-emergence method at 80 g/ha: I-a-1, I-b-2.
as §1, §2

Digitaria sanguinalis = test: Herbicidal post-emergence action, DIGSA; settings: Digitaria sanguinalis, post-emergence, 20 g/ha
Protocol: as §3, §4, §1, §2

Echinocloa crus-galli = test: Herbicidal post-emergence action, ECHCG; settings: Echinochloa crus-galli, post-emergence, 20 g/ha
Protocol: as §3, §4, §1, §2

Phaedon cochleariae = test: Phaedon test (PHAECO spray treatment); settings: application rate 500 g/ha, after 7 days, Chinese cabbage leaf discs
Protocol: Phaedon Test ([…] Spray Treatment) [table] To produce a suitable preparation of active compound, 1 part by weight of active compound is mixed with the stated amount of solvent and emulsifier, and the concentrate is diluted with emulsifier-containing water to the desired concentration. Discs of Chinese cabbage (Brassica pekinensis) are sprayed with an active compound preparation of the desired concentration and, after drying, populated with larvae of the mustard beetle (Phaedon cochleariae). After 7 days, the effect in % is determined 100% means that all beetle larvae have been killed; 0% means that none of the beetle larvae have been killed. Phaedon Test ([…] Spray Treatment) To produce a suitable preparation of active compound, 1 part by weight of active compound is mixed with the stated amount of solvent and emulsifier, and the concentrate is diluted with emulsifier-containing water to the desired concentration. Discs of Chinese cabbage (Brassica pekinensis) are sprayed with an active compound preparation of the desired concentration and, after drying, populated with larvae of the mustard beetle (Phaedon cochleariae). After the desired period of time, the activity in % is determined. 100% means that all beetle larvae have been killed; 0% means that none of the beetle larvae have been killed.

Myzus persicae [3] = test: Myzus test (MYZUPE spray treatment); settings: application rate 500 g/ha, after 5 days, Chinese cabbage leaf discs
Protocol: Myzus Test (MYZUPE Spray Treatment) [table] To produce a suitable preparation of active compound, 1 part by weight of active compound is mixed with the stated amount of solvent and emulsifier, and the concentrate is diluted with emulsifier-containing water to the desired concentration. Discs of Chinese cabbage (Brassica pekinensis) infected by all stages of the green peach aphid (Myzus persicae) are sprayed with an active compound preparation of the desired concentration. After 5 days, the effect in % is determined 100% means that all of the aphids have been killed; 0% means that none of the aphids have been killed. Myzus Test (MYZUPE Spray Treatment) To produce a suitable preparation of active compound, 1 part by weight of active compound is mixed with the stated amount of solvent and emulsifier, and the concentrate is diluted with emulsifier-containing water to the desired concentration. Discs of Chinese cabbage (Brassica pekinensis) infected by all stages of the green peach aphid (Myzus persicae) are sprayed with an active compound preparation of the desired concentration. After the desired period of time, the activity in % is determined. 100% means that all of the aphids have been killed; 0% means that none of the aphids have been killed.

Nilaparvata lugens = Nilaparvata lugens test (NILALU hydroponic treatment); settings: 20 ppm, after 7 days
Protocol: Nilaparvata Lugens Test ([…] Hydroponic Treatment) To produce a suitable preparation of active compound, 1 part by weight of active compound is mixed with the stated amount of solvent and emulsifier, and the concentrate is diluted with emulsifier-containing water to the desired concentration. The active compound preparation is pipetted into water. The stated concentration refers to the amount of active compound per volume unit of water (mg/l=ppm), the sample is then infected with the brown planthopper (Nilaparvata lugens). After 7 days, the effect in % is determined 100% means that all of the planthoppers have been killed; 0% means that none of the planthoppers have been killed.

Spodoptera frugiperda = Spodoptera frugiperda test (SPODFR spray treatment); settings: application rate 500 g/ha, after 7 days, corn leaf discs
Protocol: Spodoptera Frugiperda Test (SPODFR Spray Treatment) [table] To produce a suitable preparation of active compound, 1 part by weight of active compound is mixed with the stated amount of solvent and emulsifier, and the concentrate is diluted with emulsifier-containing water to the desired concentration. Discs of corn leaves (Zea mays) are sprayed with an active compound preparation of the desired concentration and, after drying, populated with caterpillars of the armyworm (Spodoptera frugiperda). After 7 days, the effect in % is determined. 100% means that all caterpillars have been killed; 0% means that none of the caterpillars have been killed. Spodoptera Frugiperda Test (SPODFR Spray Treatment) To produce a suitable preparation of active compound, 1 part by weight of active compound is mixed with the stated amount of solvent and emulsifier, and the concentrate is diluted with emulsifier-containing water to the desired concentration. Discs of corn leaves (Zea mays) are sprayed with an active compound preparation of the desired concentration and, after drying, populated with caterpillars of the armyworm (Spodoptera frugiperda). After the desired period of time, the activity in % is determined. 100% means that all caterpillars have been killed; 0% means that none of the caterpillars have been killed.

Meloidogyne incognita = Meloidogyne incognita test (MELGIN); settings: 20 ppm, after 14 days, lettuce roots
Protocol: Meloidogyne Incognita Test (MELGIN) [table] To prepare a suitable active compound preparation, 1 part by weight of active compound is mixed with the stated amounts of solvent and the concentrate is diluted with water to the desired concentration. Containers are filled with sand, solution of active compound, Meloidogyne incognita egg/larvae suspension and lettuce seeds. The lettuce seeds germinate and the plants develop. On the roots, galls are formed. After 14 days, the nematicidal effect in % is determined by the formation of galls. 100% means that no galls have been found; 0% means that the number of galls on the treated plants corresponds to the untreated control.

| SMILES | inhibition at 20 ppm (Myzus persicae [1]) | inhibition at 20 ppm (Myzus persicae [2]) | inhibition at 20 g/ha (Setaria viridis) | inhibition at 20 g/ha (Alopecurus myosuroides) | inhibition at 20 g/ha (Digitaria sanguinalis) | inhibition at 20 g/ha (Echinocloa crus-galli) | effect in % (beetle larvae killed) (Phaedon cochleariae) | effect in % (aphids killed) (Myzus persicae [3]) | effect in % (planthoppers killed) (Nilaparvata lugens) | effect in % (caterpillars killed) (Spodoptera frugiperda) | nematicidal effect in % (formation of galls) (Meloidogyne incognita) |
| --- | --- | --- | --- | --- | --- | --- | --- | --- | --- | --- | --- |
| CCOC(=O)OC1=C(c2c(C)cc(I)cc2CC)C(=O)NC12CCC(OC)CC2 (stereo not shown) [I-1-c-1 known from WO 06/029799] | 50% | 60% | 20% | 30% | 30% | 30% |  |  |  |  |  |
| CCc1cc(C)cc(Br)c1C1=C(OC(=O)C(C)(C)C)NC(C)(C)C1=O [I-a-13] |  |  |  |  |  |  | 83% | 80% | 100% |  |  |
| COc1cc(C)cc(C)c1C1=C(OC(=O)C(C)(C)C)NC2(CCC(OC)CC2)C1=O (stereo not shown) [I-a-2] |  |  |  |  |  |  | 100% | 100% |  | 100% | 100% |
